Measurements from patent US10709159B2, “Increasing the bioavailability of flavan-3-ols with carbohydrates with a low glycemic index” (NESTEC S.A., priority 2012, dated 2020).

Tested on: Caco-2 human epithelial colorectal adenocarcinoma cells
Experiment: In vitro Caco-2 cell model, transport of (−)-epicatechin
Assay type: in vitro ADME
Settings: for concentration of (−)-epicatechin in the basal compartment in comparison to sucrose: 250 μM (−)-epicatechin plus carbohydrate 100 mg/ml on the apical side, 2 h incubation; for concentration of (−)-epicatechin in the basal compartment when in combination with carbohydrate: (−)-epicatechin in combination with selected low glycemic index carbohydrates
Description: Caco-2 human epithelial colorectal adenocarcinoma cells were used to investigate the transport of (−)-epicatechin in vitro. Cells were grown in high glucose DMEM supplemented with 20% heat inactivated fetal bovine serum, non-essential amino acids and 2 mM L-glutamine, amphotericin B (1 μg/ml), penicillin (100 U/ml), and streptomycin (100 μg/ml) and maintained at 37° C. and 5% CO2. The medium was replaced every 2 days and the cells were reseeded every 7 days. Then, cells were seeded in 12-well transwell inserts at a density of 20,000 cells per cm^2 and the medium on both sides was replaced every 2 days. After 21 days, cells were already differentiated. On the experiment day, medium was removed and replaced by HBSS supplemented with 25 mM glucose, 10 mM HEPES and 1.8 mM CaCl2. […] Then, (−)-epicatechin (250 μM) alone or plus carbohydrates (5 to 100 mg/ml) were placed in the apical side of the cell monolayers and incubated for 2 h. All compounds were added to the exposure medium from stock solutions in DMSO. The concentration of DMSO at the apical side was kept at 0.05% in each experiment. (−)-Epicatechin was detected in the cell culture media using ultra-performance liquid chromatography using an Acquity UPLC HSS C18 2.1×100 mm, 1.8 μm column (Waters, Switzerland) equipped with HSS C18 VanGuard pre-column (Waters, Switzerland).

| SMILES | concentration of (−)-epicatechin in the basal compartment in comparison to sucrose | concentration of (−)-epicatechin in the basal compartment when in combination with carbohydrate |
| --- | --- | --- |
| OC[C@@H](O)[C@@H](O)[C@H](O)[C@@H](O)CO [sorbitol, D-sorbitol] | significant higher concentration of (−)-epicatechin in the basal compartment | significant increase in the concentration of (−)-epicatechin in the basal compartment |
| OC[C@@H](O)[C@H](O)[C@@H](O)CO [xylitol] | significant higher concentration of (−)-epicatechin in the basal compartment | significant increase in the concentration of (−)-epicatechin in the basal compartment |
| O=C[C@H](O)[C@@H](O)[C@@H](O)[C@H](O)CO [galactose] | significant higher concentration of (−)-epicatechin in the basal compartment | significant increase in the concentration of (−)-epicatechin in the basal compartment |
